Measurements: US20250161263A1, “USE OF A COMPOUND, PHARMACEUTICAL FORMULATION, METHOD OF TREATMENT FOR ASTHMA AND/OR COPD, AND COMPOUND” (FUNDAÇÃO OSWALDO CRUZ, priority 2022, published 2025)
Entries after “also recorded” stand apart in the source; their conditions may differ.

Assays:
Assay type in all cases: in vivo, mice (BALB/c)
[1] = system: PAS-labeled mucus-producing goblet cells of the bronchiolar epithelium; assay: Goblet cell metaplasia / mucus production, PAS-stained lung sections, airway hypersensitivity model; settings: braylin treatment (FIG. 5: 50 mg/kg/in), p<0.05
Protocol: (§1) The ovalbumin-induced airway hypersensitivity model (BOLANDI et al., 2021), used as the basis for the present findings, induces pathophysiological and structural changes which characterize respiratory diseases such as asthma and chronic obstructive pulmonary disease (COPD).
(§2) The mice were divided into groups of six animals and immunized with a subcutaneous injection of 10 μg of ovalbumin (Sigma, St. Louis, MO) diluted in 2 mg/ml alum (Alunmlmject; Pierce, Rockford, IL), followed by of a booster injection 14 days later. From day 28 onwards, the mice were placed in an acrylic box and subjected to inhalation exposure to ovalbumin (1%) for 15 minutes per day, for five consecutive days. The ovalbumin solution was nebulized using an ultrasonic inhaler (RespiraMax, Brazil). […]
After collecting the bronchoalveolar lavage, lung perfusion was performed intratracheally with 1 ml formalin (4%) and, subsequently, the right lobe of the lungs of each animal was removed and fixed in the same solution for histological and morphometric analysis. The sections were stained with hematoxylin and eosin to quantify inflammatory cells by optical microscopy according to the number of cores present in the fields with the largest population of cells. To quantify mucus production, staining was performed with periodic acid-Schiff (PAS) and the marked areas were quantified. […]

[2] = system: eosinophils, neutrophils and mononuclear cells in bronchoalveolar lavage; assay: Differential count of eosinophils, neutrophils and mononuclear cells in bronchoalveolar lavage, airway hypersensitivity model; settings: 50 mg/Kg by inhalation
Protocol: as §1
(§3) The mice were divided into groups of six animals and immunized with a subcutaneous injection of 10 μg of ovalbumin (Sigma, St. Louis, MO) diluted in 2 mg/ml alum (Alunmlmject; Pierce, Rockford, IL), followed by of a booster injection 14 days later. From day 28 onwards, the mice were placed in an acrylic box and subjected to inhalation exposure to ovalbumin (1%) for 15 minutes per day, for five consecutive days. The ovalbumin solution was nebulized using an ultrasonic inhaler (RespiraMax, Brazil). The protocol used to induce airway hypersensitivity was performed as previously described (POSSA, 2013). The naive group was challenged with saline only. To carry out the treatments, two hours before each challenge via inhalation, the mice were treated with braylin ([…] and 12.5 mg/kg, via inhalation), dexamethasone (30 mg/kg via intraperitoneal) or vehicle (10% propylene glycol in saline, inhaled).
(§4) The animals were euthanized with a lethal dose of ketamine and xylazine (300 mg/Kg and 30 mg/Kg, respectively via i.p.) 24 hours after the last challenge to collect bronchoalveolar lavage (BAL). Intratracheal instillation of 1 ml of ice-cold PBS was performed, followed by BAL collection, and this procedure was repeated. The first wash was centrifuged and the supernatant stored at −70° C. for subsequent quantification of cytokines by ELISA. The second wash was centrifuged, the supernatant was discarded and the pellets were resuspended in 1 ml of saline to count total leukocytes using a Neubauer chamber. To carry out the differential cell count, 10,000 cells were collected from the previous resuspension, centrifuged in Cytospin® and stained with hematoxylin and eosin (VASCONCELOS, 2009).

[3] = system: total inflammatory cells in bronchoalveolar lavage (airway hypersensitivity model in mice); assay: Total inflammatory cell count in bronchoalveolar lavage, ovalbumin-induced airway hypersensitivity model; settings: vs vehicle
Protocol: as §1
as §2, with “Brazil). The protocol used to induce airway hypersensitivity was performed as previously described (POSSA, 2013). The naive group was challenged with saline only.” for “Brazil).”
as §4

IL-4 = IL-4 in bronchoalveolar lavage by ELISA, airway hypersensitivity model; settings: p<0.05
Protocol: as §1, §2
The animals were euthanized with a lethal dose of ketamine and xylazine (300 mg/Kg and 30 mg/Kg, respectively via i.p.) 24 hours after the last challenge to collect bronchoalveolar lavage (BAL). […] The first wash was centrifuged and the supernatant stored at −70° C. for subsequent quantification of cytokines by ELISA. […]
(§5) The bronchoalveolar lavage supernatant stored at −70° C. was thawed and used to quantify the cytokines IL-4, IL-5 and IL-13 by the ELISA method, using specific kits (R&D System, Minnesota, MN, USA) for mice, following the manufacturer's instructions (VASCONCELOS, 2009).

IL-13 = IL-13 in bronchoalveolar lavage by ELISA, airway hypersensitivity model
Protocol: as §1, §3
as §4, with “To carry out the differential cell count, 10,000 cells were collected from the previous resuspension, centrifuged in Cytospin® and stained with hematoxylin and eosin (VASCONCELOS, 2009).” left out
as §5

IL-5 = IL-5 in bronchoalveolar lavage by ELISA, airway hypersensitivity model
Protocol: as §1, §3
as §4, with “To carry out the differential cell count, 10,000 cells were collected from the previous resuspension, centrifuged in Cytospin® and stained with hematoxylin and eosin (VASCONCELOS, 2009).” left out
as §5

[4] = system: inflammatory cells in lung tissue; assay: Pulmonary inflammatory infiltrate, HE-stained lung sections, airway hypersensitivity model; settings: 50 mg/kg inhaled, vs vehicle, p<0.05
Protocol: The mice were divided into groups of six animals and immunized with a subcutaneous injection of 10 μg of ovalbumin (Sigma, St. Louis, MO) diluted in 2 mg/ml alum (Alunmlmject; Pierce, Rockford, IL), followed by of a booster injection 14 days later. From day 28 onwards, the mice were placed in an acrylic box and subjected to inhalation exposure to ovalbumin (1%) for 15 minutes per day, for five consecutive days. The ovalbumin solution was nebulized using an ultrasonic inhaler (RespiraMax, Brazil). […] The naive group was challenged with saline only.
After collecting the bronchoalveolar lavage, lung perfusion was performed intratracheally with 1 ml formalin (4%) and, subsequently, the right lobe of the lungs of each animal was removed and fixed in the same solution for histological and morphometric analysis. The sections were stained with hematoxylin and eosin to quantify inflammatory cells by optical microscopy according to the number of cores present in the fields with the largest population of cells. […] 10 fields (400×) per animal were analyzed for a total of 5 animals, and the data were used to calculate the average number of cells per mm^2, or the area stained with PAS. The program used to assist in cell counting and area determination was Image-Pro PLUS, version 4.5 (Media Cybernetics, Silver Spring, USA).

## COc1cc2ccc(=O)oc2c2c1OC(C)(C)C=C2 [braylin]
[1]
  Goblet cell labeling (PAS) in the bronchiolar epithelium, mucus production: reduced
[2]; compared with naive group
  quantity of mononuclear cells in BAL: approached the values found in mice in the naive group
[2]; vs vehicle, p<0.05
  amount of eosinophils present in BAL: reduced
  amount of neutrophils present in BAL: reduced
[3]; 12.5 mg/kg by inhalation
  number of inflammatory cells in the BAL: no effect
[3]; 25 mg/kg by inhalation, p<0.05
  number of inflammatory cells in the BAL: reduced
[3]; 50 mg/kg by inhalation, 5 consecutive days, p<0.05
  number of inflammatory cells in the BAL: significantly lower; also recorded: reduced
[3]; 50 mg/kg intraperitoneally, 5 consecutive days, p<0.05
  number of inflammatory cells in the BAL: significantly lower
[3]; 100 mg/kg by inhalation, p<0.05
  number of inflammatory cells in the BAL: reduced
IL-4; 25 mg/kg inhaled
  level of IL-4 in BAL: reduced
IL-4; 50 mg/kg inhaled
  level of IL-4 in BAL: reduced
IL-13; 12.5 mg/kg inhaled
  level of IL-13 in BAL: significant reduction
IL-13; 25 mg/kg inhaled, p<0.05
  level of IL-13 in BAL: reduced
IL-13; 50 mg/kg inhaled, p<0.05
  level of IL-13 in BAL: reduced
IL-5; 12.5 mg/kg inhaled
  level of IL-5 in BAL: significant reduction
IL-5; 25 mg/kg inhaled, p<0.05
  level of IL-5 in BAL: reduced
IL-5; 50 mg/kg inhaled, p<0.05
  level of IL-5 in BAL: reduced
[4]
  lung inflammation, presence of inflammatory cells in HE-stained lung: reduction in lung inflammation
